Measured values published in US5521293A (Lever Brothers Company, Division of Conopco, Inc., priority 1995, dated 1996).

Columns and labels:
Format in all cases: physicochemical
Water solubility = details: in words
[1] = Critical micelle concentration (Wilhelmy plate method); details: 60° C.
Experimental: The critical micelle concentration (CMC) is defined as the concentration at which a surfactant forms micelles in aqueous solution. Micellization is the preferred interfacial phenomena, since certain surfactant benefits such as detergency (the solubilization of soils), foaming, wetting or emulsification depend on the formation of these aggregates in solution.
The CMC value of C8 /C10 oxypropyl D-gluconamide was determined by plotting surface tension as a function of log(concentration) and extrapolating linear points to obtain an intersection point. The concentration at this point was taken as the CMC. The technique used was the Wilhelmy plate method and the instrument used was a Lauda Auto-Tensiometer. While wishing not to be bound to theory, it is believed that surfactants with low CMC values form micelles more readily at lower concentrations than those with high CMC values.
The critical micelle concentration (CMC) value of C8 /C10 oxypropyl D-gluconamide (molecular weight=375.02 g/mole, 65.9% C8, 34.1% C10) was determined and is set forth below: […]

Ross-Miles foam height = assay: Ross-Miles foam height; design: key: X: low water solubility. foam height cannot be measured; details: Examples 82-83
Experimental: Since most of the foaming data on surfactants is typically obtained by the Ross-Miles Foam Height Assay (Ross, J. and Miles, G. D. Am Soc. for Testing Material Method D1173-63 Philadelphia, Pa. (1953); Oil & Soap (1958) 62:1260) the foaming ability of these surfactants were acquired using this method.
In the Ross-Miles method, 200 mL of a surfactant solution contained in a pipette of specified dimensions with a 2.9-mm-i.d. orifice is allowed to fall 90 cm onto 50 mL of the same solution contained in a cylindrical vessel maintained at a given temperature by means of a water jacket. The height of the foam produced in the cylindrical vessel is read immediately after all the solution has run out of the pipette and then again after a given amount of time.
Using this method, the foam production (initial foam height in mm) and foam stability (final foam height after 10 minutes in mm) were measured at 0.1% aldonamide concentration, 40° C. and 0 ppm (parts per million) hardness. Aldonamides that were not soluble at 40° C. were measured at about 5°-10° C. above their Krafft points.

[2] = Krafft point of aqueous dispersion of aldonamide; details: 0.1% in water by weight
Experimental: The temperature at and above which surfactants begin to form micelles instead of precipitates is referred to as the Krafft point (Tk) and at this temperature the solubility of a surfactant becomes equal to its CMC (numerical value at which micelles are formed).
The Krafft point was measured by preparing 650 ml of a 0.1% or 1.0% dispersion of aldonamide in water by weight. If the surfactant was soluble at room temperature, the solution was slowly cooled to 0° C. […] (less than zero). If it precipitated out of solution, the temperature at which precipitation occurs was taken as the Krafft point.
If the surfactant was insoluble at :room temperature, the dispersion was slowly heated until the solution became homogeneous. It was then slowly cooled until precipitation occurred. The temperature at which the surfactant precipitates out of solution upon cooling was taken as the Krafft point.

[3] = Efficiency in surface tension reduction (pC20)
Source text: Since surface tension reduction depends on the replacement of water molecules at the interface by surfactant molecules, the efficiency of a surfactant in reducing interfacial tension should reflect the concentration of surfactant at the interface relative to that in bulk liquid phase. A suitable measure of efficiency with which a surfactant performs this function can be described as pC20. This is defined as the negative logarithm of the bulk phase surfactant concentration necessary to reduce the surface tension of water by 20 dyn/cm and is given as:
In general, pC20 values are usually close to the minimum concentration needed to saturate the interface with surfactant molecules.

[4] = Effectiveness of adsorption at the interface (surface excess concentration at surface saturation); details: for surface excess concentration at surface saturation (Γmax): 60° C. (T=333.15K)
Source text: The surface excess concentration at surface saturation (Γmax) is defined as a measure of the effectiveness of surfactant adsorption at the water/air interface and represents the maximum value to which adsorption can be obtained. Effectiveness of adsorption is related to the interfacial area occupied by the surfactant molecule. The smaller the effective cross-sectional area of a surfactant at the interface, the greater its effectiveness of adsorption. The effectiveness of adsorption is an important factor in determining surfactant properties such as detergency, foaming, wetting or emulsification. While not wishing to be bound by theory, it is believed that surfactants that absorb effectively at the interface tend have tightly packed coherent interfacial films and often provide better surfactant benefits than those with loosely packed noncoherent films. The effectiveness of adsorption of C8 /C10 oxypropyl D-gluconarnide was determined using the Gibbs equation given as:
Γmax =-1/2.303RT(∂γ/∂log[Conc])T
(∂γ/∂log[Conc)T =-24.574971 ergs/cm^2 (which is equivalent to the
slope of a plot of γ versus log[Conc]) R=8.3 14×10^7 ergs/mol K (Gas Constant)
The surface excess concentration at surface saturation (Γmax) of various surfactants were determined and are set forth below: […]

[5] = Area per molecule at the interface; details: 60° C.
Source text: The area per molecule of a surfactant at the water/air interface provides information on the degree of packing and the orientation of the adsorbed surfactant molecule. While not wishing to be bound by theory, it is believed that surfactants that have small area per molecule values tend to pack more closely at the interface than those with large area per molecule values. From the surface excess concentration at surface saturation (Γmax), the area per molecule (am) of C8 /C10 oxypropyl D-gluconamide was determined and is given by:
am =1×10^16 /Nav Γmax
Γmax =-1/2·303RT(∂γ/∂log[Conc])T
NAV =6.0221×10^23 per gram mole (Avogadro's Number)
The area per molecule (am) of several surfactants were-determined and are set forth below: […]

[6] = Effectiveness in reducing surface tension (surface pressure at the CMC); details: 60° C.
Source text: Effectiveness of a surfactant in reducing surface tension is defined as the maximum reduction in surface tension that can be obtained regardless of the bulk phase surfactant concentration.
As mentioned before, surface tension reduction depends on the replacement of water molecules at the interface by surfactant molecules, therefore the effectiveness of a surfactant in reducing interfacial surface tension should reflect the saturated concentration of surfactant at the interface relative to that in bulk liquid phase. During this process the surface tension of water steadily decreases as bulk phase surfactant concentration increases. This will continue until the concentration reaches the critical micelle concentration (CMC), above which the surface tension remains nearly unchanged and the interface is saturated with surfactant. The surface tension at the CMC is therefore very close to the minimum interfacial tension or maximum surface pressure that the system can achieve. The surface pressure at this point, cmc, is a suitable measure of the effectiveness of a surfactant in reducing surface tension and is given as:
cmc =20+2.3 nRT(Γmax) log[CMC/C20 ]
n=1 which represents the number of ions whose surface concentration changes with the change in liquid phase surfactant concentration.
R=8.314×107 ergs/mol K (Gas Constant)
Γmax =-1/2·303RT(∂γ/∂log [Conc])T=3.85×10^-10 mole/cm^2
CMC/C20 =is the ratio of the critical micelle concentration to the bulk phase surfactant concentration necessary to reduce the surface tension of water by 20 dyn/cm.
The effectiveness of various surfactants in reducing surface tension ( cmc) were determined and are set forth below: […]

[7] = Surface tension at the water/air interface; details: 60° C.
Experimental: An important characteristic feature that surfactants have is the tendency for them to absorb at the water/air interface in an oriented manner, thereby altering the interfacial free energy of that surface. The surface free energy per unit area or surface tension (γ), is a measure of this work and may be considered as the minimum amount of work required to bring sufficient surfactant molecules to the surface.
The surface tension (γ) value of C8 /C10 oxypropyl D-gluconamide was determined and is set forth below: […]

[8] = Micellar shape and structure (packing parameter)
Source text: A theory of micellar structure, based upon the geometry of various micelle shapes and the space occupied by the surfactant has been disclosed by J. N. Israelachvili, D. J. Mitchell and B. W. Ninham in the J. Chem. Soc. Faraday Trans. 2, 1525, 72, (1976) which is given as the packing parameter (p).
VT =V(CH3) +(nc -1)V(CH2) and represents the volume occupied by the hydrophobic groups in the micellar core at a given temperature.
1c =1.50+1.26 nc Å and represents the length of the hydrophobic group in the core.
am =area per molecule or the cross-sectional area occupied by the hydrophilic group at the interface.
nc =total number of carbons in the alkyl chain.
Values obtained from the packing parameter (p) represent the following structures:
The packing parameter (p) of C8 /C10 oxypropyl D-Gluconamide was determined as follows: […]

[9] = listed as Dodecyl D-Gluconamide
[10] = listed as dodecyl D-gluconamide

Compound	water solubility (Water solubility; [9])	water solubility (Water solubility; [10])	CMC / micelle formation (in words) [1, 9]	CMC / micelle formation (in words) [1, 10]	Foam Height Final (symbol) (Ross-Miles foam height; after 10 minutes)	Foam Height Initial (symbol) (Ross-Miles foam height; initial)	Krafft Point (0.1%) [2] [°C]	pC20 (in words) [3]	surface excess concentration / cross sectional area (in words) [4]	surface excess concentration at surface saturation (Γmax) ([4]; listed as C8 /C10 Oxypropyl D-Gluconamide)	surface excess concentration at surface saturation (Γmax) ([4]; listed as C8 /C10 oxypropyl D-gluconamide)	CMC / micelle formation (in words) [1]	area per molecule (am) [5] [Å^2]	surface pressure at the CMC (cmc) [6] [dyn/cm]	surface tension reduction (in words) [7]	VT, volume occupied by the hydrophobic groups in the micellar core ([8]; T=333.15° K.) [Å^3]	la, length of the hydrophobic group in the core ([8]; one oxygen atom taken as one methylene group) [Å]
CCCCCCCCCCCCNC(=O)[C@H](O)[C@@H](O)[C@H](O)[C@H](O)CO [H, Dodecyl D-Gluconamide]	Insoluble	insoluble in water	None	can not form micelles	X	X	91										
C8 /C10 oxypropyl D-gluconamide [Q]							48	high pC20 value	small cross sectional area	3.85 × 10^-10 mole/cm^2	3.85×10^-10 mole/cm^2	forms micelles at a surprising low critical micelle concentration	43.1	38.5	significant reduction in water surface tension	379.7	17.5
